These are literature values, as cited in patent US20100178364A1, “Dietary supplements against latent foreign DNA” (priority 2009, published 2010).

Each structure is given as a SMILES string. Like-named read-outs stand apart in the source and are kept apart here.

For data set [1], the system named is CMV.
For data set [2], the system named is LT1/LT2 promoter. Particulars: BJAB cells, GA-treated vs untreated.
The test system of data set [3] is LANA-1, v-cyclin, and v-FLIP proteins. Conditions: KSHV positive cells (BCBL-1, BC-3, BC-1) treated 2, 3, 6 days; effect reversible.
Data set [4] relates to KSHV-positive B cells.
For data set [5] the following is noted: tested levels (3 and 4 mM).
For data set [6], the system named is EBV immediate-early protein Rta.

Turning to `C[C@H]1[C@H](OC(=O)CCC(=O)O)O[C@@H]2O[C@@]3(C)CC[C@H]4[C@H](C)CC[C@@H]1[C@@]24OO3` [artesunate], the “viral decay T ½” value in data set [1] (CMV load kinetics during artesunate treatment, oral 100 mg/day) is 22 to 45.6 h. The hematopoiesis result in data set [1] (within 10 days) is given as “improved”.

`CC1(C)[C@@H](O[C@H]2O[C@H](C(=O)O)[C@@H](O)[C@H](O)[C@H]2O[C@@H]2O[C@H](C(=O)O)[C@@H](O)[C@H](O)[C@H]2O)CC[C@]2(C)[C@H]3C(=O)C=C4[C@@H]5C[C@@](C)(C(=O)O)CC[C@]5(C)CC[C@@]4(C)[C@]3(C)CC[C@@H]12` [GA, glycyrrhizic acid]: the “LT1/LT2 promoter activity (luciferase expression)” value in data set [2] is reported as “does not affect the LT1/LT2 promoter activity”. The LANA-1 protein expression result in data set [3] is reported as “decreased”. Further, in data set [4] (uninfected B cells), the “disruption of mitochondrial membranes / DNA condensation” value is recorded as “no disruptions of their mitochondrial membranes or DNA condensation”. In addition, in data set [5], the toxicity result is on record as “not being toxic at the tested levels”.

On to `CC(/C=C/C(=O)NO)=C\[C@@H](C)C(=O)c1ccc(N(C)C)cc1` [TSA, reference compound], for which the “percentage of cells expressing Rta” value in data set [6] (P3HR1 cells after TSA alone (lytic cycle activator)) is 23.4%.

For `CCCCCCCCCCCCCC(=O)O[C@@H]1[C@@H](C)[C@@]2(O)[C@@H](C=C(CO)C[C@]3(O)C(=O)C(C)=C[C@@H]23)[C@@H]2C(C)(C)[C@]12OC(C)=O` [TPA, 12-O-tetradecanoyl-phorbol-13-acetate, reference compound], the “disruption of mitochondrial membranes / DNA condensation” value in data set [4] (TPA treatment (latent to lytic switch)) is recorded as “did not disrupt the mitochondrial membranes or caused DNA condensation”.

For `O=C(O[C@@H]1Cc2c(O)cc(O)cc2O[C@@H]1c1cc(O)c(O)c(O)c1)c1cc(O)c(O)c(O)c1` [EGCG, Epigallocatechin gallate], the “percentage of cells expressing Rta” value in data set [6] (TSA-treated P3HR1 cells, 100 mM EGCG) was 0.5%; in data set [6] (TSA-treated P3HR1 cells, EGCG) it was 9.8%.

In the case of `Nc1nc(O)c2ncn(COC(CO)CO)c2n1` [ganciclovir], in data set [1] (by day 7 of treatment, one patient), the “decrease of viral DNA load” value is recorded as 1 log.
